According to PubChem BioAssay (NCI):
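Exposure lasted 48 hours, with cells grown in 96-well plates and compounds tested at five concentrations. Definition used: TGI = concentration required for complete inhibition of growth.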

Key:
Experiment in all cases: DTP human tumour cell line panel, 48 h
CAKI-1 renal = tested on: CAKI-1 renal
NCI-H522 lung = tested on: NCI-H522 lung
HCT-15 colon = tested on: HCT-15 colon
NCI-H226 lung = tested on: NCI-H226 lung
SF-295 CNS = tested on: SF-295 CNS
UACC-257 melanoma = tested on: UACC-257 melanoma
OVCAR-5 ovarian = tested on: OVCAR-5 ovarian
SNB-19 CNS = tested on: SNB-19 CNS
COLO 205 colon = tested on: COLO 205 colon
OVCAR-3 ovarian = tested on: OVCAR-3 ovarian
SNB-75 CNS = tested on: SNB-75 CNS
PC-3 prostate = tested on: PC-3 prostate
RXF 393 renal = tested on: RXF 393 renal
SK-MEL-28 melanoma = tested on: SK-MEL-28 melanoma
HOP-62 NSCLC = tested on: HOP-62 NSCLC
U251 CNS = tested on: U251 CNS
EKVX NSCLC = tested on: EKVX NSCLC
HCC-2998 colon = tested on: HCC-2998 colon
UACC-62 melanoma = tested on: UACC-62 melanoma
T-47D breast = tested on: T-47D breast
SK-MEL-2 melanoma = tested on: SK-MEL-2 melanoma
TK-10 renal = tested on: TK-10 renal
MOLT-4 leukemia = tested on: MOLT-4 leukemia
MALME-3M melanoma = tested on: MALME-3M melanoma
KM12 colon = tested on: KM12 colon
OVCAR-8 ovarian = tested on: OVCAR-8 ovarian
HCT-116 colon = tested on: HCT-116 colon
SW-620 colon = tested on: SW-620 colon
786-0 renal = tested on: 786-0 renal
MCF7 breast = tested on: MCF7 breast
SF-268 CNS = tested on: SF-268 CNS
MDA-N = tested on: MDA-N
A549 NSCLC = tested on: A549 NSCLC
NCI/ADR-RES ovarian = tested on: NCI/ADR-RES ovarian
SK-OV-3 ovarian = tested on: SK-OV-3 ovarian
RPMI-8226 leukemia = tested on: RPMI-8226 leukemia
M14 melanoma = tested on: M14 melanoma
DU-145 prostate = tested on: DU-145 prostate
UO-31 renal = tested on: UO-31 renal
NCI-H23 lung = tested on: NCI-H23 lung
MDA-MB-435 = tested on: MDA-MB-435
ACHN renal = tested on: ACHN renal
SF-539 CNS = tested on: SF-539 CNS
OVCAR-4 ovarian = tested on: OVCAR-4 ovarian
SK-MEL-5 melanoma = tested on: SK-MEL-5 melanoma
SR leukemia = tested on: SR leukemia
HT29 colon = tested on: HT29 colon
SN12C renal = tested on: SN12C renal
LOX IMVI melanoma = tested on: LOX IMVI melanoma
BT-549 breast = tested on: BT-549 breast
HS 578T breast = tested on: HS 578T breast
K-562 leukemia = tested on: K-562 leukemia
HOP-92 NSCLC = tested on: HOP-92 NSCLC
A498 renal = tested on: A498 renal
IGROV1 ovarian = tested on: IGROV1 ovarian
HL-60(TB) leukemia = tested on: HL-60(TB) leukemia
MDA-MB-231 breast = tested on: MDA-MB-231 breast
CCRF-CEM leukemia = tested on: CCRF-CEM leukemia
NCI-H460 lung = tested on: NCI-H460 lung

Measured: TGI

O=S1(=O)OCCCOS(=O)(=O)C1Br
not listed: HS 578T breast | K-562 leukemia | HOP-92 NSCLC | A498 renal | IGROV1 ovarian | HL-60(TB) leukemia | MDA-MB-231 breast | CCRF-CEM leukemia | NCI-H460 lung
> 100 µM: all other assays above

O=C(O)Cc1[nH]cnc1C(=O)O
not listed: SR leukemia
> 100 µM: all other assays above
